Source: ChEMBL document CHEMBL1127168, “Synthesis and sar study of novel CCK-B antagonists” (Bioorg Med Chem Lett, 1993)

test system: not listed separately; test: Ratio of inhibition at CCK-A compared to CCK-B receptors.

Row | Ratio | Compound
1 | 27.7 | COC(=O)CN(CCc1ccccn1)C(=O)C(C)(Cc1c[nH]c2ccccc12)NC(=O)OC1[C@H]2C[C@@H]3C[C@@H](C[C@H]1C3)C2 (single isomer, unassigned)
2 | 7 | CC(Cc1c[nH]c2ccccc12)(NC(=O)OC1[C@H]2C[C@@H]3C[C@@H](C[C@H]1C3)C2)C(=O)N(CCCC(=O)O)CCc1ccccc1 (single isomer, unassigned)
3 | 17.5 | COC(=O)CCN(CCc1ccccc1)C(=O)C(C)(Cc1c[nH]c2ccccc12)NC(=O)OC1[C@H]2C[C@@H]3C[C@@H](C[C@H]1C3)C2 (single isomer, unassigned)
4 | 4.4 | COC(=O)CN(CCc1ccccc1)C(=O)[C@](C)(Cc1c[nH]c2ccccc12)NC(=O)OC1[C@H]2C[C@@H]3C[C@@H](C[C@H]1C3)C2 (some centres undefined)

More lines, now with the values behind:

Row | Compound | Ratio
5 | COC(=O)CCCCCCN(CCc1ccccc1)C(=O)[C@](C)(Cc1c[nH]c2ccccc12)NC(=O)OC1[C@H]2C[C@@H]3C[C@@H](C[C@H]1C3)C2 (some centres undefined) | 35.7
6 | C[C@@](Cc1c[nH]c2ccccc12)(NC(=O)OC1[C@H]2C[C@@H]3C[C@@H](C[C@H]1C3)C2)C(=O)N(CCc1ccccn1)CC(=O)O (some centres undefined) | 146
7 | C[C@@](Cc1c[nH]c2ccccc12)(NC(=O)OC1[C@H]2C[C@@H]3C[C@@H](C[C@H]1C3)C2)C(=O)NCCc1ccccn1 (some centres undefined) | 119
8 | C[C@@](Cc1c[nH]c2ccccc12)(NC(=O)OC1[C@H]2C[C@@H]3C[C@@H](C[C@H]1C3)C2)C(=O)N(CCCCCCC(=O)O)CCc1ccccc1 (some centres undefined) | > 2.9

molecular target: T1, Cholecystokinin receptor type A (Rattus norvegicus, UniProt P30551); test: In vitro inhibition of [125I]- Bolton Hunter CCK-8 to Cholecystokinin type A receptor in the rat pancreas.
T1 sequence (P30551 whole entry): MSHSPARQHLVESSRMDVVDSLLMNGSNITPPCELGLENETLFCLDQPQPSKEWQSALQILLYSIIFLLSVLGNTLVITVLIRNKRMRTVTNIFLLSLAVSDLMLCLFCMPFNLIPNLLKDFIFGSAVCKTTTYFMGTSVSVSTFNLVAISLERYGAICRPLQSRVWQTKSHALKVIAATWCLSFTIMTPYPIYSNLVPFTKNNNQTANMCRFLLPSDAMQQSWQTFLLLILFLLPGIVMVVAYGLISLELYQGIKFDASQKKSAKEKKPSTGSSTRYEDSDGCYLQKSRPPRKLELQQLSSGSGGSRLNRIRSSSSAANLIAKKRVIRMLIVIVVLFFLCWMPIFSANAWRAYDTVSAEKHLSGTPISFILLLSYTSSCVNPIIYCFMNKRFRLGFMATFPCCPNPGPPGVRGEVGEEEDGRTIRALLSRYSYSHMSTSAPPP

Row | IC50 | Compound
9 | 672 nM | C[C@@](Cc1c[nH]c2ccccc12)(NC(=O)OC1[C@H]2C[C@@H]3C[C@@H](C[C@H]1C3)C2)C(=O)N(CCC(=O)O)CCc1ccccc1 (some centres undefined)
10 | 2520 nM | COC(=O)CN(CCc1ccccn1)C(=O)C(C)(Cc1c[nH]c2ccccc12)NC(=O)OC1[C@H]2C[C@@H]3C[C@@H](C[C@H]1C3)C2 (single isomer, unassigned)
11 | 564 nM | CC(Cc1c[nH]c2ccccc12)(NC(=O)OC1[C@H]2C[C@@H]3C[C@@H](C[C@H]1C3)C2)C(=O)N(CCCC(=O)O)CCc1ccccc1 (single isomer, unassigned)
12 | 1980 nM | COC(=O)CCN(CCc1ccccc1)C(=O)C(C)(Cc1c[nH]c2ccccc12)NC(=O)OC1[C@H]2C[C@@H]3C[C@@H](C[C@H]1C3)C2 (single isomer, unassigned)
13 | 2330 nM | COC(=O)CN(CCc1ccccc1)C(=O)[C@](C)(Cc1c[nH]c2ccccc12)NC(=O)OC1[C@H]2C[C@@H]3C[C@@H](C[C@H]1C3)C2 (some centres undefined)

Second part, the compound before the results:

Row | Compound | IC50
14 | CC(Cc1c[nH]c2ccccc12)(NC(=O)OC1[C@H]2C[C@@H]3C[C@@H](C[C@H]1C3)C2)C(=O)N(CCc1ccccc1)CC(=O)O (single isomer, unassigned) | 1080 nM
15 | COC(=O)CCCCCCN(CCc1ccccc1)C(=O)[C@](C)(Cc1c[nH]c2ccccc12)NC(=O)OC1[C@H]2C[C@@H]3C[C@@H](C[C@H]1C3)C2 (some centres undefined) | 6320 nM
16 | C[C@@](Cc1c[nH]c2ccccc12)(NC(=O)OC1[C@H]2C[C@@H]3C[C@@H](C[C@H]1C3)C2)C(=O)N(CCc1ccccn1)CC(=O)O (some centres undefined) | 337 nM
17 | C[C@@](Cc1c[nH]c2ccccc12)(NC(=O)OC1[C@H]2C[C@@H]3C[C@@H](C[C@H]1C3)C2)C(=O)N(CCc1ccccc1)CC(=O)O (some centres undefined) | > 1000 nM
18 | CC(Cc1c[nH]c2ccccc12)(NC(=O)OC1[C@H]2C[C@@H]3C[C@@H](C[C@H]1C3)C2)C(=O)N(CCC(=O)O)CCc1ccccc1 (single isomer, unassigned) | 527 nM
19 | C[C@@](Cc1c[nH]c2ccccc12)(NC(=O)OC1[C@H]2C[C@@H]3C[C@@H](C[C@H]1C3)C2)C(=O)NCCc1ccccn1 (some centres undefined) | 1850 nM
20 | C[C@@](Cc1c[nH]c2ccccc12)(NC(=O)OC1C2CC3CC(C2)CC1C3)C(=O)N[C@@H](CC(=O)O)Cc1ccccc1 (some centres undefined) | 25.5 nM
21 | C[C@@](Cc1c[nH]c2ccccc12)(NC(=O)OC1[C@H]2C[C@@H]3C[C@@H](C[C@H]1C3)C2)C(=O)N(CCCCCCC(=O)O)CCc1ccccc1 (some centres undefined) | > 1000 nM

molecular target: T2, Gastrin/cholecystokinin type B receptor (Mus musculus, UniProt P56481); test: In vitro inhibition of [125I]- Bolton Hunter CCK-8 binding to Cholecystokinin type B receptor in the mouse cerebral cortex.; type: tissue-based
T2 sequence (P56481 whole entry): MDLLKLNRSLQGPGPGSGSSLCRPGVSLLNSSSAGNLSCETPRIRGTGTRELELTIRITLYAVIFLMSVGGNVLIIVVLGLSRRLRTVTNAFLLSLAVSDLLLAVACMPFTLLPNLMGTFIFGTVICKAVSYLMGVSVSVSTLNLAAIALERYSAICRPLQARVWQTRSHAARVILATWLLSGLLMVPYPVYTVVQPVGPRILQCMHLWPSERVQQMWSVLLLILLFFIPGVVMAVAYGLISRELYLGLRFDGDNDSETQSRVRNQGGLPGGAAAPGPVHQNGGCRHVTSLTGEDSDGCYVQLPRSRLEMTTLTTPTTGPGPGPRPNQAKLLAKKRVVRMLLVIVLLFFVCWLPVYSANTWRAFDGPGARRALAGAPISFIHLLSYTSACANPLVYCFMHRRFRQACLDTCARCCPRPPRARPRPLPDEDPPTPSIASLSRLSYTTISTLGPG

Row | IC50 | Compound
22 | 90.9 nM | COC(=O)CN(CCc1ccccn1)C(=O)C(C)(Cc1c[nH]c2ccccc12)NC(=O)OC1[C@H]2C[C@@H]3C[C@@H](C[C@H]1C3)C2 (single isomer, unassigned)
23 | 80.2 nM | CC(Cc1c[nH]c2ccccc12)(NC(=O)OC1[C@H]2C[C@@H]3C[C@@H](C[C@H]1C3)C2)C(=O)N(CCCC(=O)O)CCc1ccccc1 (single isomer, unassigned)
24 | 113 nM | COC(=O)CCN(CCc1ccccc1)C(=O)C(C)(Cc1c[nH]c2ccccc12)NC(=O)OC1[C@H]2C[C@@H]3C[C@@H](C[C@H]1C3)C2 (single isomer, unassigned)
25 | 532 nM | COC(=O)CN(CCc1ccccc1)C(=O)[C@](C)(Cc1c[nH]c2ccccc12)NC(=O)OC1[C@H]2C[C@@H]3C[C@@H](C[C@H]1C3)C2 (some centres undefined)

The remaining lines, values behind:

Row | Compound | IC50
26 | COC(=O)CCCCCCN(CCc1ccccc1)C(=O)[C@](C)(Cc1c[nH]c2ccccc12)NC(=O)OC1[C@H]2C[C@@H]3C[C@@H](C[C@H]1C3)C2 (some centres undefined) | 177 nM
27 | C[C@@](Cc1c[nH]c2ccccc12)(NC(=O)OC1[C@H]2C[C@@H]3C[C@@H](C[C@H]1C3)C2)C(=O)N(CCc1ccccn1)CC(=O)O (some centres undefined) | 2.31 nM
28 | C[C@@](Cc1c[nH]c2ccccc12)(NC(=O)OC1[C@H]2C[C@@H]3C[C@@H](C[C@H]1C3)C2)C(=O)NCCc1ccccn1 (some centres undefined) | 15.5 nM
29 | C[C@@](Cc1c[nH]c2ccccc12)(NC(=O)OC1[C@H]2C[C@@H]3C[C@@H](C[C@H]1C3)C2)C(=O)N(CCCCCCC(=O)O)CCc1ccccc1 (some centres undefined) | 348 nM
